Consider 36 molecules from publication PMC6748986, “Potent modulation of the CepR quorum sensing receptor and virulence in a Burkholderia cepacia complex member using non-native lactone ligands” (Scientific Reports, 2019).

Assay [1] deals with T1, CepR (Burkholderia cenocepacia, UniProt B4EMD0).
T1 sequence (B4EMD0 1-239): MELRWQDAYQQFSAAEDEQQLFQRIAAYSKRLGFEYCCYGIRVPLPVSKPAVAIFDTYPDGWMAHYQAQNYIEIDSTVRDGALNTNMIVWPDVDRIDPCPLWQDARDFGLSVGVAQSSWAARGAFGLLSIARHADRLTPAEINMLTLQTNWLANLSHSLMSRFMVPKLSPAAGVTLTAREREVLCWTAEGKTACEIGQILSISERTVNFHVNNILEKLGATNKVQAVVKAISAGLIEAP
The assay can be described thus: CepR agonism in E. coli β-galactosidase reporter (Ec-reporter) JLD271 [pJN105-cepR + pSC11-cepI]. The format is cell-based, B. cenocepacia. The note with it: for Act%: Table S2, Ec-reporter; for CepR agonism in words / Maximal Activation (%) / EC50: Ec-reporter; for Maximal Activation (%): activity for 100 μM C8-AHL set to 100%, error ±10%; for EC50: agonism dose-response. An excerpt: (§1) We began our study by screening the AHL library for CepR modulators using an E. coli-based two plasmid reporter system (Ec-reporter)[38]–[40]. Certain members of the Bcc harbor additional QS systems that are either AHL-based (e.g., BviI/BviR in B. vietnamiensis)[41] or diffusible signal factor (DSF)-based (B. cenocepacia)[42], and at least one member of the Bcc has multiple receptors that respond to C8-AHL (e.g., CepR and CepR2 in B. cenocepacia)[43]. Thus, we reasoned that using a CepR reporter in a heterologous background could simplify our initial analyses. We modified our previously reported E. coli-based two plasmid β-galactosidase reporter system to develop a CepR Ec-reporter (see Methods). The first plasmid, pJN105-cepR, contains CepR from B. cenocepacia under the control of the L-arabinose inducible pBAD promoter. A second plasmid contains a transcriptional fusion of lacZ to the cepI promoter region. The two plasmids were co-transformed into a QS mutant E. coli strain (JLD271 ∆sdiA) that lacks its LuxR-type receptor, SdiA. Using this reporter system, if an exogenously -added compound is able to interact with CepR, this will affect the protein’s interaction with the cepI promoter region and alter β-galactosidase production. Enzyme production, and thereby CepR activity, is then measurable via the degradation of a colorimetric substrate for β-galactosidase. Using this new Ec-reporter, we observed robust activity of CepR in response to its native ligand C8-AHL, with an EC50 of 5 nM (Table 1).
We used the CepR Ec-reporter to perform a primary agonism screen at a single compound concentration (100 μM, or its solubility limit, indicated in Table S1). Thirty-one compounds displaying ≥70% agonistic activity in CepR (relative to C8-AHL) were identified and subjected to dose-response analyses using the Ec-reporter (Table I; see Table S2 for complete screening data and Fig. S3 for dose-response curves).
(§2) E. coli β-galactosidase reporter assays (derived from ref.[63]) and reagents used to obtain primary screening and dose-response data were performed as previously described[22],[60],[64], with the following modifications: E. coli JLD271 (∆sdiA) was co-transformed iteratively with pSC11-cepI and pJN105-cepR via electroporation. A single colony was used to start overnight cultures in LB medium + ampicillin (100 μg/mL) + gentamicin (15 μg/mL). A 1:10 dilution of overnight culture was grown in fresh medium to OD600 = 0.25. A sterile solution of L-arabinose in water (27 mM final concentration) was added to induce protein expression, after which cells were plated in 96-well plates containing varying concentrations of compound (200 μL total volume).
(§3) Cells were grown for 4 h, OD600 was read, 50 μL aliquots from each well were permeabilized in 200 μL Z Buffer, and then 150 μL of this mixture used to measure the cleavage of 25 μL of 4 mg/mL CPRG in phosphate buffered saline (PBS) at 37 °C until positive control wells developed a deep red color (~30 min). For all agonism assays, synthetic compound (100 μM) was screened alongside and compared to the native ligand, C8-AHL (100 μM). For all primary and dose-response antagonism assays, the concentration of native ligand utilized was 10 nM (approximately equal to twice its EC50 value). […] At least 3 separate trials were performed using unique cultures on separate days.

In assay [2] the target is T1, CepR. The assay can be described thus: CepR antagonism in E. coli β-galactosidase reporter (Ec-reporter), competition against C8-AHL. The format is cell-based, B. cenocepacia. Conditions: for Inh% (100-Act%): Table S3, Ec-reporter.
Text: as §1
To identify antagonists of CepR, we screened the AHL library (at 100 μM) in competition against the native ligand C8-AHL (at approximately twice its EC50 value, 0.01 μM) in the Ec-reporter. […] The active compounds were subjected to dose-response analyses in the Ec-reporter to obtain IC50 values and assess their relative potencies (Table 2; see Table S3 for complete screening data and Fig. S3 for dose-response curves). One general trend that we noted at the outset was the majority of the antagonists had acyl tails of similar or shorter overall length than CepR’s native ligand, C8-AHL. From this set, the strongest antagonists could be divided into two classes: (i) “short alkyl tail” AHLs or analogs thereof, and (ii) phenylacetanoyl HLs (PHLs). The discovery that the latter compounds were CepR antagonists was perhaps not surprising, as we have found substituted PHLs to strongly antagonize the majority of the LuxR-type receptors studied in our laboratory to date[22],[24],[29],[45],[46].
as §2, §3

[3] abbreviates: screening conc. 100 μM, against 10 nM C8-AHL.

On to `O=C(N[C@H]1CCOC1=O)c1ccc(Cl)cc1` [Compound Q4], for which, in assay [1] (screening conc. 100 μM), the Act% worked out at 49%. Further, the “Inh% (100-Act%)” value in assay [2] (setting [3]) was -20%.
Take `O=C(Cc1cccc(F)c1)N[C@H]1CCOC1=O` [Compound C3]: the Act% in assay [1] (screening conc. 100 μM) came to 0.2%. Also, in assay [2] (Ec-reporter), the “CepR antagonism in words” value was “inactive as antagonists”. Also, the “Inh% (100-Act%)” value in assay [2] (setting [3]) came out at 20%.
For `O=C(COc1ccc([N+](=O)[O-])cc1)N[C@H]1CCOC1=O` [Compound E24], in assay [1] (screening conc. 100 μM), the Act% is 75%. The “Inh% (100-Act%)” value in assay [2] (setting [3]) was -10%.
The like results for `O=C(N[C@H]1CCOC1=O)c1ccc(Br)cc1` [Compound B6] were, in that order, 56% and 18%.
In the case of `Cc1ccc(C(=O)N[C@H]2CCOC2=O)cc1` [Compound Q8], the Act% in assay [1] (screening conc. 100 μM) is reported as 19%. In addition, in assay [2] (setting [3]), the “Inh% (100-Act%)” value was -20%.
Taken in the same sequence, the figures for `O=C(CCCc1c[nH]c2ccccc12)NC1CCCC1` [Compound F21] were -4.0% and 25%.
The like results for `O=C(COc1ccc(OC(F)(F)F)cc1)N[C@H]1CCOC1=O` [Compound D15] were, in that order, 46% and -20%.
Consider `CCCCCCCCCCCCCCCC(=O)N[C@H]1CCOC1=O` [Compound C16-AHL, hexadecanoyl L-homoserine lactone, reference compound], for which, in assay [1], the “CepR agonism in words” value is “inactive” and the “Maximal Activation (%)” value is 35%. Besides, in assay [1] (screening conc. 25 μM), the Act% worked out at 35%. Further, the “Inh% (100-Act%)” value in assay [2] (screening conc. 25 μM) is -10%.
Consider `CCCCCCCCCC(=O)CC(=O)Nc1ccccc1` [Compound V-06-018, reference compound], for which the Act% in assay [1] (screening conc. 100 μM, listed as V-06-01 8) amounted to 2.4%. Besides, the “Inh% (100-Act%)” value in assay [2] (screening conc. 100 μM, against 10 nM C8-AHL, listed as V-06-01 8) is -20%.
On to `CCCCCCCCCC(=O)CC(=O)NCc1ccc(OC)cc1` [Compound F31], for which, in assay [1] (screening conc. 100 μM), the Act% came out at 7.6%. The “Inh% (100-Act%)” value in assay [2] (setting [3]) is recorded as 21%.
Taken in the same sequence, the figures for `O=C(Cc1ccccc1)NC1CCCC1` [Compound F16] were 7.4% and -30%.
Regarding `O=C(Cc1ccc2ccccc2c1)N[C@H]1CCOC1=O` [Compound E12], in assay [1] (screening conc. 100 μM), the Act% was found to be 11%. In assay [2] (setting [3]), the “Inh% (100-Act%)” value was -10%.
Taken in the same sequence, the figures for `Cc1ccc(OCC(=O)N[C@H]2CCOC2=O)cc1` [Compound E15] were 65% and -30%.
Taken in the same sequence, the figures for `O=C(Cc1ccc(-c2ccccc2)cc1)NC1CCSC1=O` (stereo not shown) [Compound F13] were 35% and -20%.
Taken in the same sequence, the figures for `O=C(COc1ccc(C(F)(F)F)cc1)N[C@H]1CCOC1=O` [Compound E23] were 89% and -10%.
In the case of `COc1cc(C(C)=O)ccc1OCC(=O)N[C@H]1CCOC1=O` [Compound D16], in assay [1] (screening conc. 100 μM), the Act% was 3.5%. The “Inh% (100-Act%)” value in assay [2] (setting [3]) is 0.0%.
The like results for `CC(C)(C)OC(=O)Nc1ccc(CC(=O)N[C@H]2CCOC2=O)cc1` [Compound C22] were, in that order, 1.1% and -70%.
The like results for `O=C(N[C@H]1CCOC1=O)c1ccc([N+](=O)[O-])cc1` [Compound Q7] were, in that order, 10% and 28%.
Taken in the same sequence, the figures for `O=C(Cc1ccc(-c2ccccc2)cc1)N[C@H]1CCOC1=O` [Compound C18] were 1.4% and -20%.
As to `COc1cccc(CC(=O)N[C@H]2CCOC2=O)c1` [Compound E2], the Act% in assay [1] (screening conc. 100 μM) amounted to 28%. Also, the “Inh% (100-Act%)” value in assay [2] (setting [3]) was -10%.
For `O=C(Cc1ccccc1)N[C@H]1CCOC1=O` [Compound C1], the Act% in assay [1] (screening conc. 100 μM) amounted to 0.0%. For the same molecule, the “CepR antagonism in words” value in assay [2] (Ec-reporter) is “inactive”. In assay [2] (Ec-reporter, against 10 nM C8-AHL), the “Maximal Inhibition (%)” value came out at 8%.
Turning to `O=C(CCc1cccs1)N[C@H]1CCOC1=O` [Compound D3], the Act% in assay [1] (screening conc. 100 μM) was 87%. For the same molecule, in assay [2] (setting [3]), the “Inh% (100-Act%)” value is -40%.
The like results for `CCCCCCC(=O)N[C@H]1CCOC1=O` [Compound C7-AHL, reference compound] were, in that order, 106% and -10%.
The like results for `CCCCCCCCCC(=O)CC(=O)NCc1ccccc1F` [Compound F26] were, in that order, -1.2% and 20%.
Taken in the same sequence, the figures for `O=C(Cc1c[nH]c2ccccc12)N[C@H]1CCOC1=O` [Compound B13] were -1.1% and 22%.
On to `O=C(Cc1cccc([N+](=O)[O-])c1)Nc1cccc([N+](=O)[O-])c1` [Compound F55], for which, in assay [1] (screening conc. 100 μM), the Act% is on record as 25%. For the same molecule, the “CepR antagonism in words” value in assay [2] (Ec-reporter) is “dramatic losses in activity”. In addition, the “Inh% (100-Act%)” value in assay [2] (setting [3]) turned out to be 13%.
Turning to `CCCCCCCCCC(=O)CC(=O)NC1CCCCC1=O` (stereo not shown) [Control 15, reference compound], the Act% in assay [1] (screening conc. 100 μM) was 5.2%. Further, the “Inh% (100-Act%)” value in assay [2] (setting [3]) turned out to be 29%.
The like results for `O=C(CC1CCCCC1)N[C@H]1CCOC1=O` [Compound S7] were, in that order, 7.6% and 20%.
Taken in the same sequence, the figures for `CCCC(=O)CC(=O)NC1CCSC1=O` (stereo not shown) [3’O-C6-TL] were 1.6% and 4.0%.
Taken in the same sequence, the figures for `Cc1nc(-c2ccccc2)oc1CC(=O)N[C@H]1CCOC1=O` [Compound D4] were 40% and 22%.
Take `O=C(Cc1ccc(O)cc1)N[C@H]1CCOC1=O` [Compound C23]: in assay [1] (screening conc. 100 μM), the Act% is on record as -0.5%. The “Inh% (100-Act%)” value in assay [2] (setting [3]) is on record as -10%.
The like results for `CCCCCCCCCC(=O)NC1CCCC1` [Compound C10-CPA, reference compound] were, in that order, 48% and 4.0%.
The like results for `[N-]=[N+]=Nc1ccc(CC(=O)N[C@H]2CCOC2=O)cc1` [Compound C17] were, in that order, 1.0% and 26%.
`O=C(CCc1cccc([N+](=O)[O-])c1)N[C@H]1CCOC1=O` [Compound E38]: in assay [1], the EC50 worked out at 660 nM and the “Maximal Activation (%)” value is recorded as 93%. Further, the Act% in assay [1] (screening conc. 100 μM) was found to be 93%. Further, the “Inh% (100-Act%)” value in assay [2] (setting [3]) is -10%.
Take `CCCCCCCCS(=O)(=O)N[C@H]1CCOC1=O` [Compound A13]: in assay [1], the “CepR agonism in words” value is “failed to activate CepR”, the EC50 is 150 nM and the “Maximal Activation (%)” value is reported as 110%. Further, the Act% in assay [1] (screening conc. 100 μM) worked out at 108%. In addition, the “Inh% (100-Act%)” value in assay [2] (setting [3]) was determined as 17%.
Consider `CCCCCCCCCC(=O)CC(=O)NCCc1ccccc1` [Compound F50], for which the Act% in assay [1] (screening conc. 50 μM) is listed as 12%. Further, the “Inh% (100-Act%)” value in assay [2] (screening conc. 50 μM) is 1.0%.

Broadly, the EC50 is the midpoint of the concentration-response curve.
